Measurements as given in ChEMBL document CHEMBL2412969, “Antihyperglycemic and antihyperlipidemic activities of 2-(4-[(2-hydroxybenzyl) amino]-phenyl amino-methyl)-phenol in STZ induced diabetic rats” (Eur J Med Chem, 2013).
Active and inactive are the calls of the source. The rule behind the calls is not given here.

Experiments:
[1] = system: Rattus norvegicus; assay: Antihyperglycemic activity in Wistar albino rat streptozotocin-induced diabetic model assessed as reduction of blood glucose level at 30 mg/kg, po after 3 hrs (reference value: 384.33 +/- 17.33 mg/dl); format: functional
[2] = system: Rattus norvegicus; assay: Antihyperglycemic activity in Wistar albino rat streptozotocin-induced diabetic model assessed as reduction of blood glucose level at 30 mg/kg, po after 2 hrs (reference value: 386.66 +/- 17.5 mg/dl); format: functional
[3] = system: Rattus norvegicus; assay: Antihyperglycemic activity in Wistar albino rat streptozotocin-induced diabetic model assessed as reduction of blood glucose level at 20 mg/kg, po after 2 hrs (reference value: 386.66 +/- 17.5 mg/dl); format: functional
[4] = system: Rattus norvegicus; assay: Antihyperglycemic activity in Wistar albino rat streptozotocin-induced diabetic model assessed as reduction of blood glucose level at 20 mg/kg, po after 1 hr (reference value: 389.16 +/- 19 mg/dl); format: functional
[5] = system: Rattus norvegicus; assay: Hypoglycemic activity in Wistar albino rat assessed as reduction of blood glucose level at 60 mg/kg, po after 6 hrs (reference value: 73.3 +/- 4.4 mg/dl); format: ADME, organism-based; parameters: dose 60 mg/kg, route oral; conditions: in vivo
[6] = system: Rattus norvegicus; assay: Hypoglycemic activity in Wistar albino rat assessed as reduction of blood glucose level at 60 mg/kg, po after 5 hrs (reference value: 73.8 +/- 4.5 mg/dl); format: ADME, organism-based; parameters: dose 60 mg/kg, route oral; conditions: in vivo
[7] = system: Rattus norvegicus; assay: Hypoglycemic activity in Wistar albino rat assessed as reduction of blood glucose level at 60 mg/kg, po after 1 hr (reference value: 71.26 +/- 4.3 mg/dl); format: ADME, organism-based; parameters: dose 60 mg/kg, route oral; conditions: in vivo
[8] = system: Rattus norvegicus; assay: Hypoglycemic activity in Wistar albino rat assessed as reduction of blood glucose level at 30 mg/kg, po after 4 hrs (reference value: 75.8 +/- 4.7 mg/dl); format: ADME, organism-based; parameters: dose 30 mg/kg, route oral; conditions: in vivo
[9] = system: Rattus norvegicus; assay: Hypoglycemic activity in Wistar albino rat assessed as reduction of blood glucose level at 30 mg/kg, po after 3 hrs (reference value: 76.3 +/- 5.4 mg/dl); format: ADME, organism-based; parameters: dose 30 mg/kg, route oral; conditions: in vivo
[10] = system: Rattus norvegicus; assay: Hypoglycemic activity in Wistar albino rat assessed as reduction of blood glucose level at 20 mg/kg, po after 6 hrs (reference value: 73.3 +/- 4.4 mg/dl); format: ADME, organism-based; parameters: dose 20 mg/kg, route oral; conditions: in vivo
[11] = system: Rattus norvegicus; assay: Hypoglycemic activity in Wistar albino rat assessed as reduction of blood glucose level at 20 mg/kg, po after 4 hrs (reference value: 75.8 +/- 4.7 mg/dl); format: ADME, organism-based; parameters: dose 20 mg/kg, route oral; conditions: in vivo
[12] = system: Rattus norvegicus; assay: Hypoglycemic activity in Wistar albino rat assessed as reduction of blood glucose level at 20 mg/kg, po after 2 hrs (reference value: 76.5 +/- 3.7 mg/dl); format: ADME, organism-based; parameters: dose 20 mg/kg, route oral; conditions: in vivo
[13] = system: Rattus norvegicus; assay: Hypoglycemic activity in Wistar albino rat assessed as reduction of blood glucose level at 20 mg/kg, po after 1 hr (reference value: 71.26 +/- 4.3 mg/dl); format: ADME, organism-based; parameters: dose 20 mg/kg, route oral; conditions: in vivo
[14] = system: Rattus norvegicus; assay: Hypoglycemic activity in Wistar albino rat assessed as reduction of blood glucose level at 20 mg/kg, po after 3 hrs (reference value: 76.3 +/- 5.4 mg/dl); format: ADME, organism-based; parameters: dose 20 mg/kg, route oral; conditions: in vivo
[15] = system: Rattus norvegicus; assay: Hepatoprotective activity in Wistar albino rat assessed as protection against streptozotocin-induced increase in AST, ALT and ALP level in serum at 30 mg/kg, po qd for 30 days; format: functional, organism-based; parameters: dose 30 mg/kg
[16] = system: Rattus norvegicus; assay: Renalprotective activity in Wistar albino rat assessed as protection against streptozotocin-induced increase in creatinine level in blood at 30 mg/kg, po qd for 30 days; format: functional
[17] = system: Rattus norvegicus; assay: Renaltoxicity in Wistar albino rat assessed as urea level in blood at 30 mg/kg, po qd for 30 days; format: organism-based; parameters: dose 30 mg/kg, route oral; conditions: in vivo, 720 h
[18] = system: Rattus norvegicus; assay: Antiatherosclerosis activity in Wistar albino rat streptozotocin-induced diabetic model assessed as protection from atherogenicity at 30 mg/kg, po qd for 30 days relative to control; format: functional
[19] = system: Rattus norvegicus; assay: Antiatherosclerosis activity in Wistar albino rat assessed as protection from atherogenicity at 30 mg/kg, po qd for 30 days relative to control; format: functional
[20] = system: Rattus norvegicus; assay: Antihyperlipidemic activity in Wistar albino rat streptozotocin-induced diabetic model assessed as reduction of serum VLDL-cholesterol level at 30 mg/kg, po qd for 30 days; format: functional, organism-based; parameters: dose 30 mg/kg
[21] = system: Rattus norvegicus; assay: Antihyperlipidemic activity in Wistar albino rat streptozotocin-induced diabetic model assessed as reduction of serum LDL level at 30 mg/kg, po qd for 30 days; format: functional, organism-based; parameters: dose 30 mg/kg
[22] = system: Rattus norvegicus; assay: Antihyperlipidemic activity in Wistar albino rat streptozotocin-induced diabetic model assessed as reduction of serum total cholesterol level at 30 mg/kg, po qd for 30 days; format: functional, organism-based; parameters: dose 30 mg/kg
[23] = system: Rattus norvegicus; assay: Antihyperglycemic activity in Wistar albino rat streptozotocin-induced diabetic model assessed as increase of body weight at 30 mg/kg, po qd measured on day 15 (reference value: -30.3%); format: functional
[24] = system: Rattus norvegicus; assay: Toxicity in Wistar albino rat assessed as increase of body weight at 30 mg/kg, po qd measured on day 30 (reference value: 8.82%); format: organism-based; parameters: dose 30 mg/kg, route oral; conditions: in vivo
[25] = system: Rattus norvegicus; assay: Antihyperglycemic activity in Wistar albino rat streptozotocin-induced diabetic model assessed as reduction of fasting blood glucose level at 30 mg/kg, po qd measured on day 15 (reference value: 404.2 +/- 29.15 mg/dl); format: functional
[26] = system: Rattus norvegicus; assay: Hypoglycemic activity in Wistar albino rat assessed as reduction of fasting blood glucose level at 30 mg/kg, po qd measured on day 30 (reference value: 94.8 +/- 10.4 mg/dl); format: ADME, organism-based; parameters: dose 30 mg/kg, route oral; conditions: in vivo
[27] = system: Rattus norvegicus; assay: Hypoglycemic activity in Wistar albino rat assessed as reduction of fasting blood glucose level at 30 mg/kg, po qd measured on day 15 (reference value: 82.66 +/- 6.05 mg/dl); format: ADME, organism-based; parameters: dose 30 mg/kg, route oral; conditions: in vivo
[28] = system: Rattus norvegicus; assay: Hypoglycemic activity in Wistar albino rat assessed as reduction of fasting blood glucose level at 30 mg/kg, po qd measured on day 1 (reference value: 89 +/- 6.4 mg/dl); format: ADME, organism-based; parameters: dose 30 mg/kg, route oral; conditions: in vivo
[29] = system: Rattus norvegicus; assay: Antihyperglycemic activity in glucose loaded Wistar albino rat streptozotocin-induced diabetic model assessed as reduction of blood glucose level at 30 mg/kg, po after 3 hrs by oral glucose tolerance test; format: functional; parameters: scale not given: the % may be the effect or the level left
[30] = system: Rattus norvegicus; assay: Antihyperglycemic activity in Wistar albino rat streptozotocin-induced diabetic model assessed as reduction of blood glucose level at 60 mg/kg, po after 6 hrs (reference value: 372.5 +/- 15.6 mg/dl); format: functional
[31] = system: Rattus norvegicus; assay: Antihyperglycemic activity in Wistar albino rat streptozotocin-induced diabetic model assessed as reduction of blood glucose level at 60 mg/kg, po after 5 hrs (reference value: 372.2 +/- 16.6 mg/dl); format: functional
[32] = system: Rattus norvegicus; assay: Antihyperglycemic activity in Wistar albino rat streptozotocin-induced diabetic model assessed as reduction of blood glucose level at 60 mg/kg, po after 4 hrs (reference value: 373.5 +/- 15.6 mg/dl); format: functional
[33] = system: Rattus norvegicus; assay: Antihyperglycemic activity in Wistar albino rat streptozotocin-induced diabetic model assessed as reduction of blood glucose level at 60 mg/kg, po after 2 hrs (reference value: 386.66 +/- 17.5 mg/dl); format: functional
[34] = system: Rattus norvegicus; assay: Antihyperglycemic activity in Wistar albino rat streptozotocin-induced diabetic model assessed as reduction of blood glucose level at 60 mg/kg, po after 1 hr (reference value: 389.16 +/- 19 mg/dl); format: functional

With Oc1ccccc1CNc1ccc(NCc2ccccc2O)cc1 the Activity [1] was 248.8 mg/dL, the Activity [2] was 252.1 mg/dL and the Activity [3] was 312.83 mg/dL. The Activity [4] was 357.5 mg/dL, the Activity [5] was 75 mg/dL and the Activity [6] was 78 mg/dL. It also gave an Activity [7] of 75.7 mg/dL, an Activity [8] of 73.16 mg/dL and an Activity [9] of 74.16 mg/dL. It also gave an Activity [10] of 70 mg/dL, an Activity [11] of 72 mg/dL and an Activity [12] of 73.16 mg/dL. The Activity [13] was 74.12 mg/dL, the Activity [14] was 74.16 mg/dL and the Activity [15] was “Active”. The Activity [16] was 0.462 mg/dL, the Activity [17] was 43.25 mg/dL and the Activity [18] was 66.8%. The Activity [19] was 70.1%, the Activity [20] was “Active” and the Activity [21] was “Active”. For the same compound, the Activity [22] was “Active”, the Activity [23] was 8.57% and the Activity [24] was 2.94%. For the same compound, the Activity [25] was 247.5 mg/dL, the Activity [26] was 98.67 mg/dL and the Activity [27] was 80.66 mg/dL. For the same compound, the Activity [28] was 90.6 mg/dL, the Activity [29] was 56% and the Activity [30] was 36.8 mg/dL. For the same compound, the Activity [31] was 49.1 mg/dL, the Activity [32] was 54.8 mg/dL and the Activity [33] was 109.5 mg/dL. It also gave an Activity [34] of 233.16 mg/dL.
